{"source": "patent US9821035B2", "about": "“Preparation for preventing or treating type I diabetes” (REGIMMUNE CORPORATION, priority 2012, dated 2017)", "assay_type_in_all_cases": "cell-based", "key": {"[1]": {"test_system": "CD4(+) Foxp3(+) cells (Treg cells)", "assay": "Insulin-B-peptide-specific proliferation of Treg cells, CFSE/FACS on spleen cells from drug-administered NOD mice (Example 3)", "conditions": "FIG. 3B", "procedure": "(§1) 1-5. Analysis of Insulin-B-Peptide-Specific Cell Proliferation of Treg Cells and Measurement of Cytokine Production To NOD mice (NOD/ShiJcl, CLEA Japan Inc., Tokyo, Japan), which are animals representing a spontaneous model for type I diabetes, was intraperitoneally administered 100 μl of the sample for administration, twice a week between the age of 5 to 10 weeks, which was a period prior to the onset of type I diabetes. The spleen was removed from 13-week-old mice and then spleen cells were prepared and subjected to cell culture. Groups receiving test drugs were the following five groups: 1) a group receiving no drug (i.e., a group receiving physiological saline), 2) a group receiving the insulin-B-peptide-incorporated α-GalCer-liposome, 3) a group receiving the insulin-B-peptide-incorporated liposome, 4) a group receiving the α-GalCer-liposome, and 5) a group receiving the α-GalCer solution, with N=2 to 3 animals per group. After preparation of spleen cells from the animals of each of the groups, spleen cells were loaded with CFSE (carboxyfluorescein diacetate succinimidyl ester), a dye used in cell proliferation assays, and subjected to reaction, followed by washing the cells to remove the dye, in regular procedures. […] The concentrations of IL-2 and IL-10 in the culture supernatant were also measured."}, "IL-10": {"test_system": "IL-10", "assay": "Cytokine production in culture supernatant of spleen cells from drug-administered NOD mice: IL-10", "conditions": "spleen cells of dosed NOD mice, cultured four days", "procedure": "as §1"}, "IL-2": {"test_system": "IL-2", "assay": "Cytokine production in culture supernatant of spleen cells from drug-administered NOD mice: IL-2", "conditions": "spleen cells of dosed NOD mice, cultured four days", "procedure": "as §1"}}}
{"compound": "CCCCCCCCCCCCCCCCCCCCCCCCCC(=O)N[C@@H](CO[C@H]1O[C@H](CO)[C@H](O)[C@H](O)[C@H]1O)[C@H](O)[C@H](O)CCCCCCCCCCCCCC", "note": "[α-GalCer solution, (2S,3S,4R)-1-O-(α-D-galactopyranosyl)-2-hexacosanoylamino-1,3,4-octadecanetriol]", "values": [{"measurement": "ratio of the percentage of proliferated cells when no antigen was added to the percentage when the insulin B peptide was added", "setting": "[1]", "result": 1.04}, {"measurement": "Concentration of IL-10 in culture supernatant", "setting": "IL-10", "result": 1.3, "unit": "pg/mL"}, {"measurement": "Concentration of IL-2 in culture supernatant", "setting": "IL-2", "result": 0.9, "unit": "pg/mL"}]}
